Laboratory results reported in publication PMC9410420, “Novel Labdane Diterpenes-Based Synthetic Derivatives: Identification of a Bifunctional Vasodilator That Inhibits CaV1.2 and Stimulates KCa1.1 Channels” (Marine Drugs, 2022).
Like-named read-outs stand apart in the source and are kept apart here.

Experiments:
rat aorta rings [1] = assay: Phenylephrine-induced contraction of rat aorta rings (pharmaco-mechanical coupling); details: Rattus norvegicus, 0.3 µM phenylephrine
Description: (§1) The abdominal aorta was gently cleaned of adipose and connective tissues and cut into 3-mm wide rings. These were mounted in organ baths between two parallel, L-shaped, stainless-steel hooks, with one fixed in place and the other connected to an isometric transducer. Rings were allowed to equilibrate for 60 min in modified Krebs-Henseleit solution (composition in mM: 118 NaCl, 4.75 KCl, 1.19 KH2PO4, 1.19 MgSO4, 25 NaHCO3, 11.5 glucose, 2.5 CaCl2, gassed with a 95% O2–5% CO2 gas mixture to create a pH of 7.4) under a passive tension of 1 g. During this equilibration period, the solution was changed every 15 min. Isometric tension was recorded using a digital PowerLab data acquisition system (PowerLab 8/30; ADInstruments). Ring viability was assessed by recording the response to 0.3 µM phenylephrine and 60 mM KCl. Where needed, the endothelium was removed by gently rubbing the lumen of the ring with a forceps tip. This procedure was validated by adding 10 µM acetylcholine at the plateau of phenylephrine-induced contraction; a relaxation greater than 70% or less than 10% denoted the presence or absence of functional endothelium, respectively.
(§2) Aorta rings were pre-contracted pharmaco-mechanically using 0.3 µM phenylephrine and electromechanically using 25–30 mM or 60 mM KCl. Once the contraction reached a plateau, the compound was added cumulatively into the organ bath. […] The response was calculated as the percentage of phenylephrine- or KCl-induced contraction (taken as 100%).

rat aorta rings [2] = assay: KCl-induced contraction of rat aorta rings (electromechanical coupling)
Description: as §1, §2

KCa1.1 channel = biological target: T1, KCa1.1 channel (Rattus norvegicus, UniProt Q62976); assay: Whole-cell patch-clamp, K+ current through KCa1.1 channels (IKCa1.1) in tail artery myocytes; format: cell-based; details: 3, 10 and 30 µM cumulative; membrane potential 30–70 mV, Vh −40 mV
T1 construct: IKCa1.1 measured in tail artery myocytes; endogenous in cells; host or cells: freshly isolated rat tail main artery smooth muscle cells
Description: The tail main artery was dissected free of its connective tissue, and smooth muscle cells were freshly isolated under the following conditions. […] This solution was gently bubbled and stirred with a 95% O2–5% CO2 gas mixture, as previously described. Cells stored in 0.05 mM Ca^2+ external solution containing 20 mM taurine and 0.5 mg/mL BSA at 4 °C under normal air were used for experiments within two days after isolation.
An Axopatch 200B patch-clamp amplifier (Molecular Devices Corporation, Sunnyvale, CA, USA) was used to generate and apply voltage pulses to the clamped cells and record the corresponding membrane currents. Recording electrodes were pulled from borosilicate glass capillaries (WPI, Berlin, Germany) and fire-polished to obtain a pipette resistance of 2–4 MΩ, when filled with an internal solution. At the beginning of each experiment, the junction potential between the pipette and bath solution was electronically adjusted to zero. […]
K^+ current through the KCa1.1 channel (IKCa1.1) (registration period 500 ms) was measured over a range of test potentials, from −20 mV to 70 mV from a Vh of −40 mV. […] The current–voltage relationships were calculated based on the values recorded during each test pulse (leakage corrected offline). […]

CaV1.2 channel = biological target: T2, CaV1.2 channel (Rattus norvegicus, UniProt P22002); assay: Voltage dependence of CaV1.2 channel steady-state activation and inactivation in rat tail artery myocytes; format: cell-based; details: for Slope inact (slope factor of inactivation) / V50 inact (50% inactivation potential): Vh −80 mV
T2 construct: smooth muscle cells were freshly isolated; endogenous in cells; host or cells: freshly isolated rat tail main artery smooth muscle cells
Excerpt: An Axopatch 200B patch-clamp amplifier (Molecular Devices Corporation, Sunnyvale, CA, USA) was used to generate and apply voltage pulses to the clamped cells and record the corresponding membrane currents. Recording electrodes were pulled from borosilicate glass capillaries (WPI, Berlin, Germany) and fire-polished to obtain a pipette resistance of 2–4 MΩ, when filled with an internal solution. At the beginning of each experiment, the junction potential between the pipette and bath solution was electronically adjusted to zero. After compensation for whole-cell capacitance and series resistance (between 70% and 75%), current signals were low-pass filtered at 1 kHz and digitized at 3 kHz, before being stored on a computer hard disk. Electrophysiological responses were tested at room temperature (20–22 °C).
Cells were continuously superfused with an external solution containing 0.1 mM Ca^2+ and 30 mM TEA using a peristaltic pump (LKB 2132, Bromma, Sweden) at a flow rate of 400 µL/min. The conventional whole-cell patch-clamp method was employed to voltage-clamp smooth muscle cells. The internal solution consisted of (in mM) 100 CsCl, 10 HEPES, 11 EGTA, 2 MgCl2, 1 CaCl2 (pCa 8.4), 5 Na pyruvate, 5 succinic acid, 5 oxaloacetic acid, 3 Na2ATP, and 5 phosphocreatine; pH was adjusted to 7.4 with CsOH. IBa1.2 was recorded in an external solution containing 30 mM TEA and 5 mM Ba^2+. The current was elicited with 250-ms clamp pulses (0.067 Hz) to 10 mV, from a Vh of −50 mV. Data were collected once the current amplitude had been stabilized (usually 7–10 min after the whole-cell configuration had been obtained).
Steady-state activation curves were derived from the current–voltage relationships. Conductance (G) was calculated from the equation G = IBa1.2/(Em − Erev), where: IBa1.2 is the peak current elicited by depolarizing test pulses between −50 mV and 40 mV from a Vh of −50 mV; Em is the membrane potential; and Erev is the reversal potential (estimated from the extrapolated current-voltage curves in Figure 2). Gmax is the maximal Ba^2+ conductance (calculated at potentials ≤40 mV). The G/Gmax ratio was plotted against the membrane potential and fitted to the Boltzmann equation [40]. Steady-state inactivation curves were obtained using a double-pulse protocol. Once various levels of the conditioning potential had been applied for 5 s, followed by a short (5-ms) return to the Vh of −80 mV, a test pulse (250 ms) to 10 mV was delivered to evoke the current. The delay between the conditioning potential and the test pulse allowed the full or near-complete deactivation of the channels, simultaneously avoiding partial recovery from inactivation. K^+ currents were blocked with 30 mM TEA in the external solution and Cs^+ in the internal solution. […] The osmolarity of the 30 mM TEA- and 5 mM Ba^2+-containing external solution (320 mosmol, adjusted with NaCl if required) and that of the internal solution (290 mosmol) were measured with an osmometer (Osmostat OM 6020, Menarini Diagnostics, Florence, Italy).

T2 sequence (P22002 whole entry): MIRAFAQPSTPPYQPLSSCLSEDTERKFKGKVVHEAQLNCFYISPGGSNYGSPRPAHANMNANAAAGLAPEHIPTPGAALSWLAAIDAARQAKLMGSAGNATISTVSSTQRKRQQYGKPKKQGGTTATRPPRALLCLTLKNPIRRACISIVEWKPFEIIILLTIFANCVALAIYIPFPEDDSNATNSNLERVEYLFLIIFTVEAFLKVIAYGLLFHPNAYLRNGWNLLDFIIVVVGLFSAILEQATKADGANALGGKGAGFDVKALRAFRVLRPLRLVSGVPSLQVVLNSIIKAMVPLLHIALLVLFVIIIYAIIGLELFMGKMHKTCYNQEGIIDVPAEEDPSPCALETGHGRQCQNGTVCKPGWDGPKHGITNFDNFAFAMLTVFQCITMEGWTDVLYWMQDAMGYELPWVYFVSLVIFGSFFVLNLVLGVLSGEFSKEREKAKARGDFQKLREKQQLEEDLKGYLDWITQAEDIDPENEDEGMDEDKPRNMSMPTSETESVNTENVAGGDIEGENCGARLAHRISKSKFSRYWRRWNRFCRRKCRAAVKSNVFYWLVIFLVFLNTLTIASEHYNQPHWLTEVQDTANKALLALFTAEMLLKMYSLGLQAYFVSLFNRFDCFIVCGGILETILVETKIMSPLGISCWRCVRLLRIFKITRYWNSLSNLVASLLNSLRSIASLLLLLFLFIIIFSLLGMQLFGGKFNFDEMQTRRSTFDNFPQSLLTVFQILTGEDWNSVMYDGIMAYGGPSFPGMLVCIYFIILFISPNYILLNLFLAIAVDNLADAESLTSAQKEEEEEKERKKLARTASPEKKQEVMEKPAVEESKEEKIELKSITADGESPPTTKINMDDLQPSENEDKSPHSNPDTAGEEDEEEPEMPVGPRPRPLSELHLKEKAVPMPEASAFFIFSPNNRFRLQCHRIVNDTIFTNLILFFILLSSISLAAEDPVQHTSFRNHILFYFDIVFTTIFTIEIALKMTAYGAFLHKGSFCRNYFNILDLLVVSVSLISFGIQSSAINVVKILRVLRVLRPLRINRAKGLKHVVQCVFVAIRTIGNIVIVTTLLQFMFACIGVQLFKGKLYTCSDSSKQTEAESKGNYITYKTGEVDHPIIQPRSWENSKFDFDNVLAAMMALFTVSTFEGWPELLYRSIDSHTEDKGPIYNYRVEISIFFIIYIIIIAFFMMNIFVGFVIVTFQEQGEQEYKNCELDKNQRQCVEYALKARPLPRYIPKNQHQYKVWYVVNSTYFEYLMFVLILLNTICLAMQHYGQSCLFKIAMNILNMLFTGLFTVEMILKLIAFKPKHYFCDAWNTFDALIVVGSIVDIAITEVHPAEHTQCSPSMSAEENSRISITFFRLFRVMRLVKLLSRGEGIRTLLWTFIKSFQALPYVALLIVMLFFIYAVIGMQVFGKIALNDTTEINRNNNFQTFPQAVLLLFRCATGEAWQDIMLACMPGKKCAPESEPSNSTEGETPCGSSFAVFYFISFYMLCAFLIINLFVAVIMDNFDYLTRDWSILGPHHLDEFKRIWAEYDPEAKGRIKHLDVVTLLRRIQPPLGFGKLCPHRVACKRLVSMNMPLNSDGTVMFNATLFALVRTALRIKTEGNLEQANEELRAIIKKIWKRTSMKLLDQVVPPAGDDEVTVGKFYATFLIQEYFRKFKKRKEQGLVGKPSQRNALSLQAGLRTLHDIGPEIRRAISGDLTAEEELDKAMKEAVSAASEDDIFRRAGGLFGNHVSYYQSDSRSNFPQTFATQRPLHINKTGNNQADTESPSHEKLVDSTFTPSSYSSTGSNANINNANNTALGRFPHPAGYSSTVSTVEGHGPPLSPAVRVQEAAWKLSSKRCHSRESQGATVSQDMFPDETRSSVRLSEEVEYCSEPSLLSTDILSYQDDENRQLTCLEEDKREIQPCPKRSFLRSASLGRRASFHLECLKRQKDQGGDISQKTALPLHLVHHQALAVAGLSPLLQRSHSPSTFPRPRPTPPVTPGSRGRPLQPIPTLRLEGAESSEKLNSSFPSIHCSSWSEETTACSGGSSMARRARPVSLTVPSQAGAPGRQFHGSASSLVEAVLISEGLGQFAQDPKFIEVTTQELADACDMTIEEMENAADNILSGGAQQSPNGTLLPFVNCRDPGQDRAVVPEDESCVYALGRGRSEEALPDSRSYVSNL
T2 sequence (P54290 25-944 partner limits assumed): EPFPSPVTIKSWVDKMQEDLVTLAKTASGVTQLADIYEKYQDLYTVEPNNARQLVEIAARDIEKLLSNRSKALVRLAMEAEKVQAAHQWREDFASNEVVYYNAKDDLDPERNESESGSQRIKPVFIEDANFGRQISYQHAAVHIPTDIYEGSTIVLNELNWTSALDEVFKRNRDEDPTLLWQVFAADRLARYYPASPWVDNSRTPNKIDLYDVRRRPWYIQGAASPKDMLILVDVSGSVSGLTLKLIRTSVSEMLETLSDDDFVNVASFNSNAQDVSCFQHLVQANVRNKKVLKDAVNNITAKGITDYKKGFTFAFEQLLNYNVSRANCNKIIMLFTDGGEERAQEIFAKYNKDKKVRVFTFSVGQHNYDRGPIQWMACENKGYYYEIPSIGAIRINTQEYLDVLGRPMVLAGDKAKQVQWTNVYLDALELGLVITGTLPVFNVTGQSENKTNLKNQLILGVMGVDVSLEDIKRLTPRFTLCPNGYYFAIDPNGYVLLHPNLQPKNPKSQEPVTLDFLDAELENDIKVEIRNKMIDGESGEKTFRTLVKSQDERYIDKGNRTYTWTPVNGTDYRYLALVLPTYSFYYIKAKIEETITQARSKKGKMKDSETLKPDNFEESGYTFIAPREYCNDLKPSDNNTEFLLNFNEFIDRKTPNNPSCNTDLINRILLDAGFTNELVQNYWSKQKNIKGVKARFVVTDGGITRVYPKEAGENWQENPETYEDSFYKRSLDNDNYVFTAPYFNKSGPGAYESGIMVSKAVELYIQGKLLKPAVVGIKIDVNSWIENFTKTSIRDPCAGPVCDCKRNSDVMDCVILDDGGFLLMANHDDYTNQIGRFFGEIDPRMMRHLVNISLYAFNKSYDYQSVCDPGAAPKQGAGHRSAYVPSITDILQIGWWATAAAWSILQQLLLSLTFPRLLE
T2 sequence (P54290 945-1091 partner limits assumed): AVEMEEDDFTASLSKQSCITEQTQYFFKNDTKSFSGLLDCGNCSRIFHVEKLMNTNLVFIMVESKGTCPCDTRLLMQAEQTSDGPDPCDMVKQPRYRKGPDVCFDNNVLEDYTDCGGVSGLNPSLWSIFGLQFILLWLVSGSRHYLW
T2 sequence (P54287 whole entry partner): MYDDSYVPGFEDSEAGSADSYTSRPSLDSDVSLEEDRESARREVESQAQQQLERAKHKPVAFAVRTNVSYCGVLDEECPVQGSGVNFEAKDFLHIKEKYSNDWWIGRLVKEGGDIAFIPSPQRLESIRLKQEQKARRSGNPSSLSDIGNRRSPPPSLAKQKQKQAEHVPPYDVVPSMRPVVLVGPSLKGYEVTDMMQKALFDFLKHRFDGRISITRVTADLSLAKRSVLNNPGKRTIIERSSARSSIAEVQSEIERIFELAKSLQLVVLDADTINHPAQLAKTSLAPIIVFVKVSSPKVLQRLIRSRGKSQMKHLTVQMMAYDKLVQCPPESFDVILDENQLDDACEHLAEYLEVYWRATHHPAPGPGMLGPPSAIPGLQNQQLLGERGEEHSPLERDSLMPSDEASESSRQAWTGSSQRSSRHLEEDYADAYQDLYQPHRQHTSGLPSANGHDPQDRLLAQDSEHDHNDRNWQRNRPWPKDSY

`CC1(C)CCC[C@]2(C)[C@@H](CC(=O)Nc3ccccc3-n3cccc3)[C@](C)(O)CC[C@@H]12` [Compound 7] was tested, and the Emax (rat aorta rings [1]; endothelium-denuded rat aorta rings, read-out: Emax (percent maximal inhibition), phenylephrine-induced contraction, −Endothelium) was at most 60%, the Emax (rat aorta rings [1]; endothelium-intact rat aorta rings, read-out: Emax (percent maximal inhibition), phenylephrine-induced contraction, +Endothelium) was 8.6 ± 9.3% and the Emax (rat aorta rings [2]; endothelium-denuded rat aorta rings pre-contracted by 25 mM KCl, read-out: Emax (percent maximal inhibition), KCl 25 mM-induced contraction) was 94.3 ± 4.5%. It also gave an IC50 (rat aorta rings [2]; endothelium-denuded rat aorta rings pre-contracted by 25 mM KCl, read-out: IC50, KCl 25 mM-induced contraction) of 0.2 ± 0.1 µM, an Emax (rat aorta rings [2]; endothelium-denuded rat aorta rings pre-contracted by 60 mM KCl, read-out: Emax (percent maximal inhibition), KCl 60 mM-induced contraction) of 89.7 ± 1.9% and an IC50 (rat aorta rings [2]; endothelium-denuded rat aorta rings pre-contracted by 60 mM KCl, read-out: IC50, KCl 60 mM-induced contraction) of 9.3 ± 2 µM. For the same compound, the “Effect on IKCa1.1” value (KCa1.1 channel) was “significant concentration-dependent stimulation of the current”, the “Slope act (slope factor of activation)” value (CaV1.2 channel; 10 µM compound) was 8.36 ± 0.75 and the “Slope inact (slope factor of inactivation)” value (CaV1.2 channel; 10 µM compound) was −7.53 ± 0.24. For the same compound, the “V50 inact (50% inactivation potential)” value (CaV1.2 channel; 10 µM compound) was −30.24 ± 1.29 mV, the “Ba2+ window current, potential of the peak” value (CaV1.2 channel; 10 µM, control peaked at −10 mV) was “about −15 mV” and the “Ba2+ window current, relative amplitude at peak” value (CaV1.2 channel; 10 µM, control relative amplitude 0.078) was 0.021. For the same compound, the “Slope inact (slope factor of inactivation)” value (CaV1.2 channel; 30 µM compound) was −7.70 ± 0.51 and the “V50 inact (50% inactivation potential)” value (CaV1.2 channel; 30 µM compound) was −38.29 ± 2.00 mV.
